Results published in patent US9809573B2, “Substituted pyridine derivatives useful as GSK-3 inhibitors” (priority 2013, dated 2017).
Read-outs that look alike come from different tables or passages of the source.

What was measured:
pTau = pTau assay (method not described); format: cell-based
GSK3α = GSK3α (Homo sapiens, UniProt P49840); assay: biochemical
Method: (§1) The kinase assay was performed in V-bottom 384-well plates. […] The reaction was incubated at room temperature for 20 hours and terminated by adding 45 μl of 35 mM EDTA to each sample. The reaction mixture was analyzed on the Caliper LabChip3000 (Caliper, Hopkinton, Mass.) by electrophoretic separation of the unphosphorylated substrate and phosphorylated product. […] Compounds were dissolved at 10 mM in dimethylsulfoxide (DMSO) and evaluated at eleven concentrations. IC50 values were derived by non-linear regression analysis.

GSK3β = GSK3β (Homo sapiens, UniProt P49841); assay: GSK3β kinase assay (Caliper LabChip3000, fluoresceinated peptide substrate); format: biochemical
Method: as §1

[1] = second value of the cell, 250 pM enzyme, 20 uM ATP, 20 hours at room temperature, read-out: GSK3β/α (nM): GSK3α IC50
[2] = first value of the cell, 250 pM enzyme, 20 uM ATP, 20 hours at room temperature, read-out: GSK3β/α (nM): GSK3β IC50
[3] = read-out: GSK3β/α (nM): GSK3α IC50, second value of the cell, 250 pM enzyme, 20 uM ATP, 20 hours at room temperature
[4] = read-out: GSK3β/α (nM): GSK3β IC50, first value of the cell, 250 pM enzyme, 20 uM ATP, 20 hours at room temperature

Sequence of GSK3α (P49840 whole entry, species assumed): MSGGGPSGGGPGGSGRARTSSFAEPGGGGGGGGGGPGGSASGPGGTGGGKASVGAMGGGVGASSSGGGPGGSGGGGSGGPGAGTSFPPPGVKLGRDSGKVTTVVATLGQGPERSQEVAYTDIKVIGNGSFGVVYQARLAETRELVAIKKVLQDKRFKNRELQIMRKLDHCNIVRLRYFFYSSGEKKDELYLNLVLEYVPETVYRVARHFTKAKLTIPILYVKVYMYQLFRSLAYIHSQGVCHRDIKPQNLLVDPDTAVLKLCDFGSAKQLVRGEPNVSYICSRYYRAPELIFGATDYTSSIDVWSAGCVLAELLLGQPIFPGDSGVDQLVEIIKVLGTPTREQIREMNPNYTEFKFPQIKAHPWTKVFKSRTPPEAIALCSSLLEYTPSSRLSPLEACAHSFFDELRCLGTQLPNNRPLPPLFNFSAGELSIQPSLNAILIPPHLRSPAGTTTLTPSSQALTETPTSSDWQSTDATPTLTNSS
Sequence of GSK3β (P49841 whole entry, species assumed): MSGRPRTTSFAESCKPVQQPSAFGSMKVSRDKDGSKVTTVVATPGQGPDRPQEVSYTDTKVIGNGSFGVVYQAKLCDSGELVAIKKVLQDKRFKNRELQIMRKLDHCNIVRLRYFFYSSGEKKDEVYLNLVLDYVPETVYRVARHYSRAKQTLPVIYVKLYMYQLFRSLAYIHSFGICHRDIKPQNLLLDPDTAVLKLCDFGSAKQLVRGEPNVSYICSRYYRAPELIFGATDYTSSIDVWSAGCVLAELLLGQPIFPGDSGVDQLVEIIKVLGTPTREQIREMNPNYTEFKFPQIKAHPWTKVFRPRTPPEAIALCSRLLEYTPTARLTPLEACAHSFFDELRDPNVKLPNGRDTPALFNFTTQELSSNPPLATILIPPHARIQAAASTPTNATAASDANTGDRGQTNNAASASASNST

SMILES	IC50 (pTau; read-out: pTau)	IC50 (GSK3α; [1])	IC50 (GSK3β; [2])	IC50 (GSK3β)	other results
CC1CN(c2ccncc2NC(=O)c2ccnc(NC(=O)C3CC3)c2)CCO1 (racemic) [Example 46, 2-(Cyclopropanecarboxamido)-N-(4-(2-methylmorpholino)pyridin-3-yl)isonicotinamide]	–	–	–	0.54 nM	IC50 (pTau; read-out: pTau (nM)): 57 nM; IC50 (GSK3α): 0.37 nM
O=C(Nc1cnccc1-c1ccccc1)c1ccnc(NC(=O)[C@@H]2CC[C@@H](O)C2)c1 (relative stereo) [Example 230, 2-((1,3-Trans)-3-hydroxycyclopentanecarboxamido)-N-(4-phenylpyridin-3-yl)isonicotinamide]	–	–	–	2.5 nM	IC50 (pTau; read-out: pTau (nM)): 73 nM; IC50 (GSK3α): 0.68 nM
C[C@@H]1CN(c2ccncc2NC(=O)c2ccnc(NC(=O)C3CC3)c2)CCO1 (single isomer, unassigned) [Example 77]	–	–	–	8.8 nM	IC50 (pTau; read-out: pTau (nM)): 220 nM; IC50 (GSK3α): 2.7 nM
C[C@H]1CN(c2ccncc2NC(=O)c2ccnc(NC(=O)C3CC3)c2)CCO1 (single isomer, unassigned) [Example 78]	–	–	–	0.99 nM	IC50 (pTau; read-out: pTau (nM)): 18 nM; IC50 (GSK3α): 0.35 nM
O=C(Nc1cnccc1-c1ccc(Cl)cc1)c1ccnc(NC(=O)C2CC(F)C2)c1 (single isomer, unassigned) [Example 223, N-(4-(4-chlorophenyl)pyridin-3-yl)-2-((1,3-cis)-3-fluorocyclobutanecarboxamido)isonicotinamide]	150 nM	–	–	–	IC50 (GSK3α; [3]): 3.1 nM; IC50 (GSK3β; [4]): 6.9 nM
Cc1ccncc1NC(=O)c1ccnc(NC(=O)C2CC2)c1 [Example 9, 2-(Cyclopropanecarboxamido)-N-(4-methylpyridin-3-yl)isonicotinamide]	1200 nM	22 nM	–	30 nM	–
CC(=O)c1ccncc1NC(=O)c1ccnc(NC(=O)C2CC2)c1 [Example 14, N-(4-acetylpyridin-3-yl)-2-(cyclopropanecarboxamido)isonicotinamide]	76 nM	0.54 nM	–	0.85 nM	–
CC(C)(O)c1ccncc1NC(=O)c1ccnc(NC(=O)C2CC2)c1 [Example 16, 2-(Cyclopropanecarboxamido)-N-(4-(2-hydroxypropan-2-yl)pyridin-3-yl)isonicotinamide]	–	–	–	0.11 nM	IC50 (pTau; read-out: pTau (nM)): 2.8 nM; IC50 (GSK3α): 0.2 nM
CC(O)c1ccncc1NC(=O)c1ccnc(NC(=O)C2CC2)c1 (stereo not drawn) [Example 17, 2-(Cyclopropanecarboxamido)-N-(4-(1-hydroxyethyl)pyridin-3-yl)isonicotinamide]	35 nM	1.4 nM	–	0.25 nM	–
O=C(Nc1cnccc1C1CCCC1)c1ccnc(NC(=O)C2CC2)c1 [Example 36, N-(4-cyclopentylpyridin-3-yl)-2-(cyclopropanecarboxamido)isonicotinamide]	800 nM	–	–	41 nM	–
O=C(Nc1cnccc1C1CCCCC1)c1ccnc(NC(=O)C2CC2)c1 [Example 37, N-(4-cyclohexylpyridin-3-yl)-2-(cyclopropanecarboxamido)isonicotinamide]	1200 nM	–	–	120 nM	–
C=C(C)c1ccncc1NC(=O)c1ccnc(NC(=O)C2CC2)c1 [Example 38, 2-(Cyclopropanecarboxamido)-N-(4-(prop-1-en-2-yl)pyridin-3-yl)isonicotinamide]	80 nM	–	–	4.4 nM	–
CC(C)c1ccncc1NC(=O)c1ccnc(NC(=O)C2CC2)c1 [Example 39, 2-(Cyclopropanecarboxamido)-N-(4-isopropylpyridine-3-yl)isonicotinamide]	470 nM	–	–	23 nM	–
O=C(Nc1cncc(-c2ccccc2)c1)c1ccnc(NC(=O)C2CCC2)c1 [Example 213, 2-(cyclobutanecarboxamido)-N-(5-phenylpyridin-3-yl)isonicotinamide]	1600 nM	2.8 nM	–	–	–
O=C(Nc1cnccc1-c1ccc(Cl)cc1)c1ccnc(NC(=O)C2CC(Cl)C2)c1 (stereo not drawn) [Example 224, N-(4-(4-chlorophenyl)pyridin-3-yl)-2-((1,3-trans)-3-cholorocyclobutanecarboxamido)isonicotinamide]	15 nM	–	–	–	–

Continued, in another order:

IC50 (pTau; read-out: pTau)	IC50 (GSK3α; [1])	IC50 (GSK3β; [2])	SMILES	IC50 (GSK3β)	other results
4500 nM	24 nM	1.8 nM	O=C(Nc1cnccc1-c1ccccc1)c1ccnc(NC(=O)[C@@H]2C[C@H]2c2ccccc2)c1 (relative stereo) [Example 99, 2-((Trans)-2-phenylcyclopropanecarboxamido)-N-(4-phenylpyridin-3-yl)isonicotinamide]	–	–
37 nM	–	–	O=C(Nc1cnccc1-c1ccc(Cl)cc1)c1ccnc(NC(=O)C2CC(F)C2)c1 (single isomer, unassigned) [Example 222, N-(4-(4-chlorophenyl)pyridin-3-yl)-2-((1,3-trans)-3-fluorocyclobutanecarboxamido)isonicotinamide]	–	IC50 (GSK3α; [3]): 1.3 nM; IC50 (GSK3β; [4]): 1.7 nM
7200 nM	180 nM	370 nM	CC(=O)Nc1ccc(NC(=O)c2ccnc(NC(=O)C3CC3)c2)cn1 [Example 4, N-(6-Acetamidopyridin-3-yl)-2-(cyclopropanecarboxamido)isonicotinamide]	–	–
≥ 10000 nM	230 nM	570 nM	O=C(Nc1cnc2ccccc2c1)c1ccnc(NC(=O)C2CC2)c1 [Example 5, 2-(Cyclopropanecarboxamido)-N-(quinolin-3-yl)isonicotinamide]	–	–
190 nM	2.7 nM	7.2 nM	O=C(Nc1cncc2ccccc12)c1ccnc(NC(=O)C2CC2)c1 [Example 6, 2-(Cyclopropanecarboxamido)-N-(isoquinolin-4-yl)isonicotinamide]	–	–
≥ 10000 nM	1000 nM	–	COc1ccc(NC(=O)c2ccnc(NC(=O)C3CC3)c2)cn1 [Example 7, 2-(Cyclopropanecarboxamido)-N-(6-methoxypyridin-3-yl)isonicotinamide]	–	–
1800 nM	24 nM	48 nM	Cc1cc(NC(=O)c2ccnc(NC(=O)C3CC3)c2)cnc1F [Example 8, 2-(Cyclopropanecarboxamido)-N-(6-fluoro-5-methylpyridin-3-yl)isonicotinamide]	–	–
1800 nM	64 nM	16 nM	O=C(Nc1ccc(-c2ccccc2)nc1)c1ccnc(NC(=O)C2CC2)c1 [Example 10, 2-(Cyclopropanecarboxamido)-N-(6-phenylpyridin-3-yl)isonicotinamide]	–	–
2200 nM	15 nM	30 nM	Cc1ccc(NC(=O)c2ccnc(NC(=O)C3CC3)c2)cn1 [Example 11, 2-(Cyclopropanecarboxamido)-N-(6-methylpyridin-3-yl)isonicotinamide]	–	–
1400 nM	16 nM	33 nM	O=C(Nc1cncc(F)c1)c1ccnc(NC(=O)C2CC2)c1 [Example 12, 2-(Cyclopropanecarboxamido)-N-(5-fluoropyridin-3-yl)isonicotinamide]	–	–
550 nM	7.3 nM	13 nM	COc1cncc(NC(=O)c2ccnc(NC(=O)C3CC3)c2)c1 [Example 13, 2-(Cyclopropanecarboxamido)-N-(5-methoxypyridin-3-yl)isonicotinamide]	–	–
610 nM	11 nM	16 nM	O=C(Nc1cncc(Br)c1)c1ccnc(NC(=O)C2CC2)c1 [Example 15, 2-(Cyclopropanecarboxamido)-N-(5-bromopyridin-3-yl)isonicotinamide]	–	–
200 nM	–	4.4 nM	O=C(Nc1cnccc1-c1ccsc1)c1ccnc(NC(=O)C2CC2)c1 [Example 31, 2-(Cyclopropanecarboxamido)-N-(4-(thiophen-3-yl)pyridin-3-yl)isonicotinamide]	–	–
3200 nM	–	160 nM	O=C(Nc1cnccc1-c1cccnc1)c1ccnc(NC(=O)C2CC2)c1 [Example 32, N-([3,4′-bipyridin]-3′-yl)-2-(cyclopropanecarboxamido)isonicotinamide]	–	–
670 nM	–	28 nM	O=C(Nc1cnccc1-c1ccncc1)c1ccnc(NC(=O)C2CC2)c1 [Example 33, N-([4,4′-bipyridin]-3-yl)-2-(cyclopropanecarboxamido)isonicotinamide]	–	–
≥ 10000 nM	1200 nM	–	Cn1cnc(NC(=O)c2ccnc(NC(=O)C3CC3)c2)c1 [Example 174, 2-(cyclopropanecarboxamido)-N-(1-methyl-1H-imidazol-4-yl)isonicotinamide]	–	–
5500 nM	–	650 nM	O=C(Nc1cnc(-c2ccccn2)s1)c1ccnc(NC(=O)C2CC2)c1 [Example 176, 2-(cyclopropanecarboxamido)-N-(2-(pyridin-2-yl)thiazol-5-yl)isonicotinamide]	–	–
3900 nM	–	61 nM	Cc1ncc(NC(=O)c2ccnc(NC(=O)C3CC3)c2)s1 [Example 177, 2-(cyclopropanecarboxamido)-N-(2-methylthiazol-5-yl)isonicotinamide]	–	–
5500 nM	–	–	O=C(Nc1cnc(-c2ccccc2)s1)c1ccnc(NC(=O)C2CC2)c1 [Example 181, 2-(cyclopropanecarboxamido)-N-(2-phenylthiazol-5-yl)isonicotinamide]	–	–
43 nM	–	–	O=C(Nc1cnccc1-c1ccc(Cl)cc1)c1ccnc(NC(=O)C2CC(Cl)C2)c1 (stereo not drawn) [Example 225, N-(4-(4-chlorophenyl)pyridin-3-yl)-2-((1,3-cis)-3-cholorocyclobutanecarboxamido)isonicotinamide]	–	–
